Experimental data as given in patent publication US20250179017A1 (GUANGDONG NEWOPP BIOPHARMACEUTICALS CO., LTD., priority 2022, published 2025).

Columns and labels:
[1] = biological target: T1, human EP2 (PTGER2) (Homo sapiens, UniProt P43116); assay: EP2 antagonist assay (HEK-293 CNG membrane potential cAMP assay / 293T SEAP reporter assay, PGE2-stimulated); type: cell-based; conditions: EP2 antagonist activity; concentration for 50% inhibition of signal compared to DMSO
T1 construct: Cayman Chemical (Human EP2 Reporter Assay Kit)
T1 sequence (P43116 whole entry): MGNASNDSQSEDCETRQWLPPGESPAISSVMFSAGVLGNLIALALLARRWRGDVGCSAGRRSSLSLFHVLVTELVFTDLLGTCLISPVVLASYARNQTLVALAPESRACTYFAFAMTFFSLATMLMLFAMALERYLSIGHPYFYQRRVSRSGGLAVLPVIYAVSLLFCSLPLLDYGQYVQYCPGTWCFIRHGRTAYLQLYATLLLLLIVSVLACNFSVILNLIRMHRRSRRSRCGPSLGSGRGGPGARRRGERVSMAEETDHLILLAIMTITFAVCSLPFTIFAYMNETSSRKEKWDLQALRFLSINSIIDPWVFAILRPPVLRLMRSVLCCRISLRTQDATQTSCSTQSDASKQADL
Method in brief: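 Two formats. In a CRE-SEAP reporter assay, reverse-transfected 293T cells received compound with PGE2 (13 nM final) for 6-8 h, then luminescence was read. In the ACTOne CNG format, HEK-293 cells were preincubated with compound for 15 min at RT, stimulated with 5 nM PGE2 for 30 min, and read by membrane-potential dye fluorescence. IC50 was taken versus DMSO.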

[2] = biological target: T2, human EP4 (EP4R) (Homo sapiens, UniProt P35408); assay: EP4 antagonist assay (HEK-293 CNG membrane potential cAMP assay / 293T SEAP reporter assay, PGE2-stimulated); type: cell-based; conditions: EP4 antagonist activity; concentration for inhibition of signal compared to DMSO
T2 construct: Cayman Chemical (Human EP4 Reporter Assay Kit)
T2 sequence (P35408 whole entry): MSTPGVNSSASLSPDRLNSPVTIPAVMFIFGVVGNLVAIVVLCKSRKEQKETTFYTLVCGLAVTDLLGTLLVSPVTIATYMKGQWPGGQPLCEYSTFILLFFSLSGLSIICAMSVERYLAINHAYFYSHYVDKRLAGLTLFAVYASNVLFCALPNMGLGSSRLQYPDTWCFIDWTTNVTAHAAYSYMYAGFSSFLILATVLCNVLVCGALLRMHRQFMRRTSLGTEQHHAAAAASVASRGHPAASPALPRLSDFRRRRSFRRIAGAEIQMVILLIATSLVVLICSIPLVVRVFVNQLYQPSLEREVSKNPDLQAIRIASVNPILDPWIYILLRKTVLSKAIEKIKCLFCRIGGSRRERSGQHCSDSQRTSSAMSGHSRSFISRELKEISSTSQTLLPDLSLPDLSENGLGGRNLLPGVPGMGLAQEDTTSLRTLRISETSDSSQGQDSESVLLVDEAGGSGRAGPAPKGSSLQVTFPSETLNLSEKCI
Description: 1. The HEK-293 CNG (Cyclic Nucleotide Gated) cell line expressing a modified CNG channel that leads to cell membrane depolarization in response to elevated intracellular cAMP levels, which can be measured using a fluorescent membrane potential dye, was engineered to express human EP2 (PTGER2) or EP4 (EP4R). The resulting cell line ACTOne™ PTGER2 or ACTOne™ EP4R as well as the fluorescent membrane potential dye were purchased from eEnzyme (Gaithersburg, MD, US) and used in this assay. Briefly, cells were plated at 1.2×10^4 cells/well in 20 μL DMEM supplemented with 2% Fetal Bovine Serum (FBS, VWR International), 1x Penicillin/Streptomycin (GenClone), 0.2 μg/mL puromycin (InvivoGen) and 50 μg/mL G418 (InvivoGen) on a 384 well plate (Greiner). The next day, cells were dye-loaded with 20 μL/well of 1x Dye-loading solution (eENZYME) following the manufacturer's instruction. After 2 hours of incubation at room temperature (RT) in the dark, a pre-read was made to obtain the background signals using CLARIOstar plate reader (BMG LABTECH, Germany) with the following filter settings: excitation=530/20 nm, emission=590/20 nm. Next, a serial dilution of compound (plus a DMSO control) were added to the plate (5 μL/well) and the reaction was incubated at RT for 15 min before adding 5 μL of PGE2 to every well for a final concentration of 5 nM. All wells were duplicated. The plate was then further incubated at RT for 30 min prior to a final read with the same machine settings. Background-subtracted signals were used to calculate IC50 values.
2. Human EP2 and EP4 Reporter Assay Kits were purchased from Cayman Chemical (Ann Arbor, MI, USA). The assay was performed following the provided User Manual. Briefly, a reverse transfection was performed by seeding 6.0×10^4 of 293T cells (ATCC) to each well of the provided Strip Plate coated with a proprietary transfection complex containing DNA constructs for expressing human EP2 or EP4 and a cAMP response element regulated secreted alkaline phosphatase (SEAP) reporter, in 200 μL DMEM supplemented with 2% FBS and incubated for 20-24 hours at 37° C. with 5% CO2. After the incubation, the culture medium was carefully removed, and the cells were replenished with 150 μL pre-warmed serum-free medium. PGE2 and test compounds were prepared together at 4x the desired final concentration, and 50 μL was added to each assigned well with the final concentration of 13 nM and 2 nM PGE2 for EP2 and EP4 assay, respectively. After 6-8 hours of incubation, 10 μL media from each well was transferred to corresponding well of a new plate, which was then sealed and incubated at 65° C. for 30 min. The plate was then cooled down to RT and 50 μL SEAP substrate was added to each well. Luminescence signal was measured using a CLARIOstar plate reader.
The IC50 value was determined as the concentration for […] inhibition of signal compared to DMSO (A: IC50≤100 nM; B: IC50 between 100 nM and 1,000 nM; C: IC50≥1,000 nM).

Structure (SMILES) | IC50 [1] [nM] | IC50 [2] [nM]
O=C(O)c1ccc(CNC(=O)c2cc(-c3ccc(F)cc3)cc3ccn(Cc4ccc(C(F)(F)F)cc4)c23)cc1 [Example 1, 4-((5-(4-fluorophenyl)-1-(4-(trifluoromethyl)benzyl)-1H-indole-7-carboxamido)methyl)benzoic acid] | < 100 | ≤ 100
O=C(O)c1ccc(CNC(=O)c2cc(-c3ccccc3)cc3ccn(Cc4ccc(C(F)(F)F)cc4)c23)cc1 [Example 2, 4-((5-phenyl-1-(4-(trifluoromethyl)benzyl)-1H-indole-7-carboxamido)methyl)benzoic acid] | < 100 | ≤ 100
N#Cc1cccc(-c2cc(C(=O)NCc3ccc(C(=O)O)cc3)c3c(ccn3Cc3ccc(C(F)(F)F)cc3)c2)c1 [Example 7, 4-((5-(3-cyanophenyl)-1-(4-(trifluoromethyl)benzyl)-1H-indole-7-carboxamido)methyl)benzoic acid] | < 100 | ≤ 100
O=C(O)c1ccc(CNC(=O)c2cc(-c3cc(F)cc(F)c3)cc3ccn(Cc4ccc(C(F)(F)F)cc4)c23)cc1 [Example 9, 4-((5-(3,5-difluorophenyl)-1-(4-(trifluoromethyl)benzyl)-1H-indole-7-carboxamido)methyl)benzoic acid] | < 100 | ≤ 100
O=C(O)c1ccc(C2(NC(=O)c3ccc(Nc4ccccc4)c4ccn(Cc5ccc(C(F)(F)F)cc5)c34)CC2)cc1 [Example 44, 4-(1-(4-(phenylamino)-1-(4-(trifluoromethyl)benzyl)-1H-indole-7-carboxamido)cyclopropyl)benzoic acid] | < 100 | ≤ 100
C[C@H](NC(=O)c1cc(-c2ccc(F)cc2)cc2ccn(Cc3ccc(C(F)(F)F)cc3)c12)c1ccc(C(=O)O)cc1 [Example 50, (S)-4-(1-(5-(4-fluorophenyl)-1-(4-(trifluoromethyl)benzyl)-1H-indole-7-carboxamido)ethyl) benzoic acid] | < 100 | ≤ 100
C[C@H](NC(=O)c1cc(-c2ccccc2)cc2ccn(Cc3ccc(C(F)(F)F)cc3)c12)c1ccc(C(=O)O)cc1 [Example 51, (S)-4-(1-(5-phenyl-1-(4-(trifluoromethyl)benzyl)-1H-indole-7-carboxamido)ethyl) benzoic acid] | < 100 | ≤ 100
C[C@H](NC(=O)c1cc(-c2cccc(C#N)c2)cc2ccn(Cc3ccc(C(F)(F)F)cc3)c12)c1ccc(C(=O)O)cc1 [Example 52, (S)-4-(1-(5-(3-cyanophenyl)-1-(4-(trifluoromethyl)benzyl)-1H-indole-7-carboxamido)ethyl) benzoic acid] | < 100 | ≤ 100
O=C(O)c1ccc(CNC(=O)c2ccc(Nc3ccccc3)c3ccn(Cc4ccc(C(F)(F)F)cc4)c23)cc1 [Example 57, 4-((4-(phenylamino)-1-(4-(trifluoromethyl)benzyl)-1H-indole-7-carboxamido)methyl)benzoic acid] | < 100 | 100 to 1000
O=C(O)c1ccc(CNC(=O)c2ccc(Nc3cc(F)cc(F)c3)c3ccn(Cc4ccc(C(F)(F)F)cc4)c23)cc1 [Example 69, 4-((4-((3,5-difluorophenyl)amino)-1-(4-(trifluoromethyl)benzyl)-1H-indole-7-carboxamido)methyl)benzoic acid] | < 100 | 100 to 1000
C[C@H](NC(=O)c1ccc(Nc2ccccc2)c2ccn(Cc3ccc(C(F)(F)F)cc3)c12)c1ccc(C(=O)O)cc1 [Example 74, (S)-4-(1-(4-(phenylamino)-1-(4-(trifluoromethyl)benzyl)-1H-indole-7-carboxamido)ethyl)benzoic acid] | < 100 | ≤ 100
COc1cccc(-c2cc(C(=O)NCc3ccc(C(=O)O)cc3)c3c(ccn3Cc3ccc(C(F)(F)F)cc3)c2)c1 [Example 76, 4-((5-(3-methoxyphenyl)-1-(4-(trifluoromethyl)benzyl)-1H-indole-7-carboxamido)methyl)benzoic acid] | < 100 | ≤ 100
O=C(O)c1ccc(CNC(=O)c2cc(-c3cccnc3)cc3ccn(Cc4ccc(C(F)(F)F)cc4)c23)cc1 [Example 78, 4-((5-(pyridin-3-yl)-1-(4-(trifluoromethyl)benzyl)-1H-indole-7-carboxamido)methyl)benzoic acid] | < 100 | ≤ 100
O=C(O)c1ccc(CNC(=O)c2cc(-c3ccncc3)cc3ccn(Cc4ccc(C(F)(F)F)cc4)c23)cc1 [Example 80, 4-((5-(pyridin-4-yl)-1-(4-(trifluoromethyl)benzyl)-1H-indole-7-carboxamido)methyl)benzoic acid] | < 100 | ≤ 100
CC(C)(O)c1cccc(-c2cc(C(=O)NCc3ccc(C(=O)O)cc3)c3c(ccn3Cc3ccc(C(F)(F)F)cc3)c2)c1 [Example 85, 4-((5-(3-(2-hydroxypropan-2-yl)phenyl)-1-(4-(trifluoromethyl)benzyl)-1H-indole-7-carboxamido)methyl)benzoic acid] | 100 to 1000 | ≤ 100
O=C(O)c1ccc(CNC(=O)c2cc(-c3ccccc3F)cc3ccn(Cc4ccc(C(F)(F)F)cc4)c23)cc1 [Example 87, 4-((5-(2-fluorophenyl)-1-(4-(trifluoromethyl)benzyl)-1H-indole-7-carboxamido)methyl)benzoic acid] | < 100 | ≤ 100
O=C(O)c1ccc(CNC(=O)c2cc(-c3ccc(F)cc3)cc3cnn(Cc4ccc(C(F)(F)F)cc4)c23)cc1 [Example 96, 4-((5-(4-fluorophenyl)-1-(4-(trifluoromethyl)benzyl)-1H-indazole-7-carboxamido)methyl)benzoic acid] | < 100 | ≤ 100
O=C(O)c1ccc(CNC(=O)c2cc(-c3ccccc3)cc3cnn(Cc4ccc(C(F)(F)F)cc4)c23)cc1 [Example 97, 4-((5-phenyl-1-(4-(trifluoromethyl)benzyl)-1H-indazole-7-carboxamido)methyl)benzoic acid] | < 100 | ≤ 100
C[C@H](NC(=O)c1cc(-c2ccccc2)cc2cnn(Cc3ccc(C(F)(F)F)cc3)c12)c1ccc(C(=O)O)cc1 [Example 100, (S)-4-(1-(5-phenyl-1-(4-(trifluoromethyl)benzyl)-1H-indazole-7-carboxamido)ethyl)benzoic acid] | < 100 | ≤ 100
C[C@H](NC(=O)c1cc(-c2cc(F)cc(F)c2)cc2cnn(Cc3ccc(C(F)(F)F)cc3)c12)c1ccc(C(=O)O)cc1 [Example 101, (S)-4-(1-(5-(3,5-difluorophenyl)-1-(4-(trifluoromethyl)benzyl)-1H-indazole-7-carboxamido)ethyl)benzoic acid] | < 100 | ≤ 100
O=C(O)c1ccc(CNC(=O)c2cc(-c3cc(F)cc(F)c3)cc3ccn(Cc4cccc(Cl)c4)c23)cc1 [Example 106, 4-((1-(3-chlorobenzyl)-5-(3,5-difluorophenyl)-1H-indole-7-carboxamido)methyl)benzoic acid] | < 100 | ≤ 100
O=C(O)c1ccc(CNC(=O)c2cc(-c3ccc(F)cc3)cc3ccn(Cc4cccc(Cl)c4)c23)cc1 [Example 107, 4-((1-(3-chlorobenzyl)-5-(4-fluorophenyl)-1H-indole-7-carboxamido)methyl)benzoic acid] | < 100 | ≤ 100
